The target in the assay is T1, WT GlyT2 (Homo sapiens, UniProt Q9Y345).
T1 sequence (Q9Y345 1-797): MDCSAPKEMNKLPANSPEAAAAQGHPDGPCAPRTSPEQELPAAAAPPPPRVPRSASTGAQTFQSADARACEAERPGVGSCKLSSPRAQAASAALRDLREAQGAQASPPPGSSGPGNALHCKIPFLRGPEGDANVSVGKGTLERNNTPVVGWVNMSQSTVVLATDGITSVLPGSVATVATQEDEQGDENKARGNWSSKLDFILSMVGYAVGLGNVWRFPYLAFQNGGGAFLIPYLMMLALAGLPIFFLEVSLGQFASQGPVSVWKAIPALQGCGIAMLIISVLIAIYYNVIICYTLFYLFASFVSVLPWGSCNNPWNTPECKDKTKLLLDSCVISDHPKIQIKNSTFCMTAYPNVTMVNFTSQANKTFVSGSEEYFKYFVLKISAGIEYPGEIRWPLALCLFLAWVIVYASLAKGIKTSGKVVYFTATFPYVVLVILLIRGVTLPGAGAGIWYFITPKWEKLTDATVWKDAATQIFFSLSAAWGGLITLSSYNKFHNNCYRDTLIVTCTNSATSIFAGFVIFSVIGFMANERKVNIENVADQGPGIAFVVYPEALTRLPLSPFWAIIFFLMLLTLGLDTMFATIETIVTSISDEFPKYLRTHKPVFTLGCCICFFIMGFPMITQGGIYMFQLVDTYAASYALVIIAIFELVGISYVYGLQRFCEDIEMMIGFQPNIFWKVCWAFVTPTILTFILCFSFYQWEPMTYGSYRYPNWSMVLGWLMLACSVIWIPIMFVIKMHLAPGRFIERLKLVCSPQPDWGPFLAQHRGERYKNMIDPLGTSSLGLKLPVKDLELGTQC
The note with it: read-out: Glycine EC50; WT GlyT2 in Xenopus laevis oocytes; glycine 1 μM – 3 mM. The procedure: The transport activity of GlyT2 is an electrogenic process as it couples the transport of glycine to the co-transport of 3 Na^+ and 1 Cl^− and thus can be measured using two-electrode voltage-clamp electrophysiology. Oocytes expressing GlyTs were voltage-clamped at −60 mV, and glycine-induced whole-cell currents were measured using a GeneClamp 500 amplifier (Axon Instruments), and a PowerLab 2/26 chart recorder (ADInstruments) and LabChart Software (ADInstruments).
Functionality of WT and mutant GlyT2 transporters was assessed by applying increasing concentrations of glycine (1–3,000 µM) in ND96 until a stable current was achieved. Glycine concentrations were applied individually and completely removed from the system via washing with recording buffer before proceeding to the next concentration. EC50 values for each transporter were determined by fitting concentration–response data to the modified Michaelis–Menten equation: I=([Gly].Imax)/(EC50+[Gly]), where I is current in nA, [Gly] is the concentration of glycine, Imax is the current generated by a maximal concentration of glycine, and EC50 is the concentration of glycine that generates a half-maximal current.

As for `NCC(=O)O` [Glycine, glycine], the EC50 was 18 µM.

Values taken from publication PMC9873984, “Membrane cholesterol regulates inhibition and substrate transport by the glycine transporter, GlyT2” (Life Science Alliance, 2023).
